# Results from PubChem BioAssay (NCI).
#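 Compound exposure: 48 hours, 5 concentrations, 96-well plates. TGI marks complete inhibition of growth.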
# Columns and labels:
# Experiment in all cases: growth of human tumour cells (NCI), 48 h
# [1] = test system: SNB-75 CNS
# [2] = test system: LOX IMVI melanoma
# [3] = test system: HL-60(TB) leukemia
# [4] = test system: EKVX NSCLC
# [5] = test system: SF-539 CNS
# [6] = test system: MDA-N
# [7] = test system: HOP-62 NSCLC
# [8] = test system: HOP-92 NSCLC
# [9] = test system: UO-31 renal
# [10] = test system: ACHN renal
# [11] = test system: SK-MEL-28 melanoma
# [12] = test system: SK-OV-3 ovarian
# [13] = test system: T-47D breast
# [14] = test system: SF-295 CNS
# [15] = test system: OVCAR-5 ovarian
# [16] = test system: SR leukemia
# [17] = test system: MDA-MB-435
# [18] = test system: SW-620 colon
# [19] = test system: COLO 205 colon
# [20] = test system: OVCAR-8 ovarian
# [21] = test system: IGROV1 ovarian
# [22] = test system: K-562 leukemia
# [23] = test system: SK-MEL-2 melanoma
# [24] = test system: A498 renal
# [25] = test system: NCI-H460 lung
# [26] = test system: TK-10 renal
# [27] = test system: SNB-19 CNS
# [28] = test system: RPMI-8226 leukemia
# [29] = test system: HCC-2998 colon
# [30] = test system: SN12C renal
# [31] = test system: HS 578T breast
# [32] = test system: BT-549 breast
# [33] = test system: 786-0 renal
# [34] = test system: HCT-15 colon
# [35] = test system: OVCAR-3 ovarian
# [36] = test system: HT29 colon
# [37] = test system: KM12 colon
# [38] = test system: HCT-116 colon
# [39] = test system: MDA-MB-231 breast
# [40] = test system: RXF 393 renal
# [41] = test system: NCI-H522 lung
# [42] = test system: MCF7 breast
# [43] = test system: MOLT-4 leukemia
# [44] = test system: UACC-62 melanoma
# [45] = test system: NCI-H226 lung
# [46] = test system: SF-268 CNS
# [47] = test system: U251 CNS
# [48] = test system: NCI-H23 lung
# [49] = test system: CCRF-CEM leukemia
# [50] = test system: A549 NSCLC
# [51] = test system: CAKI-1 renal
# [52] = test system: NCI/ADR-RES ovarian
# [53] = test system: DU-145 prostate
# [54] = test system: UACC-257 melanoma
# [55] = test system: M14 melanoma
# [56] = test system: PC-3 prostate
# [57] = test system: SK-MEL-5 melanoma
# [58] = test system: MALME-3M melanoma
# [59] = test system: OVCAR-4 ovarian
# [60] = test system: DMS 114 small cell lung
# [61] = test system: M19-MEL melanoma
# [62] = test system: LXFL 529 NSCLC
# [63] = test system: SNB-78 CNS
# [64] = test system: DLD-1 colon
structure (smiles),measurement,setting,value
CCCCCCCCCCCCCCC(O)C[N+](C)(CCO)CCO (stereo not given),TGI,[1],2.85 µM
same,TGI,[2],4.66 µM
same,TGI,[3],2.71 µM
same,TGI,[4],42.6 µM
same,TGI,[5],7.21 µM
same,TGI,[6],22.8 µM
same,TGI,[7],10.3 µM
same,TGI,[8],5.76 µM
same,TGI,[9],17 µM
same,TGI,[10],21.7 µM
same,TGI,[11],22.4 µM
same,TGI,[12],30.7 µM
same,TGI,[13],30.6 µM
same,TGI,[14],9.96 µM
same,TGI,[15],7.92 µM
same,TGI,[16],10.1 µM
same,TGI,[17],21.3 µM
same,TGI,[18],23.7 µM
same,TGI,[19],3.19 µM
same,TGI,[20],18.8 µM
same,TGI,[21],3.14 µM
same,TGI,[22],> 38.1 µM
same,TGI,[23],27.5 µM
same,TGI,[24],22.6 µM
same,TGI,[25],6.56 µM
same,TGI,[26],4.16 µM
same,TGI,[27],3.39 µM
same,TGI,[28],5.52 µM
same,TGI,[29],3.51 µM
same,TGI,[30],21.5 µM
same,TGI,[31],7.87 µM
same,TGI,[32],10.8 µM
same,TGI,[33],4.78 µM
same,TGI,[34],22 µM
same,TGI,[35],12.1 µM
same,TGI,[36],12.1 µM
same,TGI,[37],4.23 µM
same,TGI,[38],23.8 µM
same,TGI,[39],3.76 µM
same,TGI,[40],4.36 µM
same,TGI,[41],5.03 µM
same,TGI,[42],36.5 µM
same,TGI,[43],9.13 µM
same,TGI,[44],11.1 µM
same,TGI,[45],5.63 µM
same,TGI,[46],5.16 µM
same,TGI,[47],2.89 µM
same,TGI,[48],20.7 µM
same,TGI,[49],9.82 µM
same,TGI,[50],34.3 µM
same,TGI,[51],9.59 µM
same,TGI,[52],49 µM
same,TGI,[53],23.6 µM
same,TGI,[54],26.7 µM
same,TGI,[55],3.66 µM
same,TGI,[56],4.31 µM
same,TGI,[57],16.9 µM
same,TGI,[58],7.54 µM
same,TGI,[59],17 µM
Cc1cccc(C2SCc3nc4ccccc4n32)c1 (stereo not given),TGI,[1],20.7 µM
same,TGI,[2],> 100 µM
same,TGI,[60],28.3 µM
same,TGI,[3],33.5 µM
same,TGI,[4],68.4 µM
same,TGI,[5],> 100 µM
same,TGI,[7],66.6 µM
same,TGI,[8],47.9 µM
same,TGI,[10],> 100 µM
same,TGI,[61],96.8 µM
same,TGI,[11],65.7 µM
same,TGI,[12],72.9 µM
same,TGI,[14],> 100 µM
same,TGI,[15],65.8 µM
same,TGI,[16],64.2 µM
same,TGI,[18],> 100 µM
same,TGI,[62],> 100 µM
same,TGI,[20],> 100 µM
same,TGI,[21],> 100 µM
same,TGI,[22],> 100 µM
same,TGI,[23],52.6 µM
same,TGI,[25],> 100 µM
same,TGI,[26],56.8 µM
same,TGI,[28],> 100 µM
same,TGI,[30],96.8 µM
same,TGI,[33],96.2 µM
same,TGI,[34],54.5 µM
same,TGI,[35],39.1 µM
same,TGI,[36],> 100 µM
same,TGI,[37],79.8 µM
same,TGI,[38],56.7 µM
same,TGI,[40],43.9 µM
same,TGI,[41],60.7 µM
same,TGI,[43],> 100 µM
same,TGI,[44],> 100 µM
same,TGI,[45],60.9 µM
same,TGI,[63],99.4 µM
same,TGI,[46],> 100 µM
same,TGI,[64],75.9 µM
same,TGI,[47],47.2 µM
same,TGI,[49],> 100 µM
same,TGI,[50],> 100 µM
same,TGI,[51],> 100 µM
same,TGI,[55],> 100 µM
same,TGI,[57],28.3 µM
same,TGI,[58],49.6 µM
same,TGI,[59],> 100 µM
C=CCN(CCNS(=O)(=O)c1ccc(C)cc1)S(=O)(=O)c1ccc(C)cc1,TGI,[1],> 100 µM
same,TGI,[2],> 100 µM
same,TGI,[3],47.6 µM
same,TGI,[4],96.9 µM
same,TGI,[5],> 100 µM
same,TGI,[6],> 100 µM
same,TGI,[7],> 100 µM
same,TGI,[8],> 100 µM
same,TGI,[9],> 100 µM
same,TGI,[10],> 100 µM
same,TGI,[11],> 100 µM
same,TGI,[12],> 100 µM
same,TGI,[13],> 100 µM
same,TGI,[14],> 100 µM
same,TGI,[15],> 100 µM
same,TGI,[16],> 100 µM
same,TGI,[17],> 100 µM
same,TGI,[18],> 100 µM
same,TGI,[19],> 60.5 µM
same,TGI,[20],> 100 µM
same,TGI,[21],> 100 µM
same,TGI,[22],> 100 µM
same,TGI,[23],94.3 µM
same,TGI,[24],26.8 µM
same,TGI,[25],> 71.7 µM
same,TGI,[26],> 100 µM
same,TGI,[27],> 100 µM
same,TGI,[28],73.5 µM
same,TGI,[29],> 100 µM
same,TGI,[30],> 100 µM
same,TGI,[31],> 100 µM
same,TGI,[32],61 µM
same,TGI,[33],> 100 µM
same,TGI,[34],> 100 µM
same,TGI,[35],> 100 µM
same,TGI,[36],> 100 µM
same,TGI,[37],> 100 µM
same,TGI,[38],> 100 µM
same,TGI,[39],> 100 µM
same,TGI,[40],> 100 µM
same,TGI,[41],> 100 µM
same,TGI,[42],> 84.2 µM
same,TGI,[43],> 84.5 µM
same,TGI,[44],> 100 µM
same,TGI,[45],> 100 µM
same,TGI,[46],> 100 µM
same,TGI,[47],> 100 µM
same,TGI,[48],> 95.5 µM
same,TGI,[49],> 100 µM
same,TGI,[50],> 100 µM
same,TGI,[51],> 100 µM
same,TGI,[52],> 100 µM
same,TGI,[53],> 100 µM
same,TGI,[54],> 100 µM
same,TGI,[55],> 100 µM
same,TGI,[56],> 100 µM
same,TGI,[57],12.1 µM
same,TGI,[58],> 100 µM
same,TGI,[59],> 100 µM
